Data reported in paper PMC5004293, “Characterization of FRM-36143 as a new γ-secretase modulator for the potential treatment of familial Alzheimer’s disease” (Alzheimer's Research & Therapy, 2016).

Assays:
Notch processing = assay: Notch reporter assay (HeLa 6xCBF1-Luc, NotchΔE); assay type: cell-based, human; details: Homo sapiens, overnight
Experimental: The wild-type CBF1 binding element was cloned in front of the SV40 promoter-driven luciferase reporter construct of pGL3pro (Promega, Madison, WI, USA) using the following oligonucleotides: • CBF1 Fw (5’→3’): […] • CBF1 Rv (5’→3’): […]
Oligonucleotides were phosphorylated using T4 polynucleotide kinase and annealed (by heating to 90 °C and cooling to room temperature in a buffer containing 0.1 M NaCl). Plasmid pGL3pro was cleaved with BglII and dephosphorylated using alkaline phosphatase. The oligonucleotide pair was then ligated using T4 ligase with the linearized plasmid DNA. A clone containing 6 copies of the CBF1 element in front of the SV40 promoter was chosen. The 6xCBF1-RE/SV40 promoter was excised from pGL3 using XhoI and HindIII, and the fragment transferred to the pGL4.17 [luc2/Neo] vector (Promega) was opened with the same restriction enzymes.
The full length human Notch in plasmid pCMV6-XL5 (Origene, Rockville, MD, USA) was used to amplify a truncated form of Notch (NotchΔE) containing the 20-amino-acid (a.a.) signal sequence followed by 5 a.a. […]
HeLa cells stably transfected with the 6xCBF1-Luc reporter were transiently transfected with the NotchΔE construct (4 μg DNA/10^6 cells) using Lipofectamine 2000 (Thermo Fisher, Waltham, MA, USA) in 6-well plates. […] Chemiluminescence was then read on an EnVision plate reader (Perkin Elmer).

γ-secretase = assay: Aβ42 ELISA in mouse primary cortical neurons; assay type: cell-based; details: overnight
Experimental: Primary cultures were established from the neocortex of E17 CD1 mouse embryos (Charles River Laboratories, Wilmington, MA, USA). Following tissue dissection and trituration, the cultures were suspended in Neurobasal® medium (Invitrogen, Carlsbad, CA, USA) supplemented with 10 % horse serum (Sigma-Aldrich, St. Louis, MO, USA) and 520 μM L-glutamine. Cells were plated at 50,000 cells/well in 96-well poly-D-lysine-coated plates. Following incubation at 37 °C and 5 % CO2 for 4 h, the plating medium was exchanged with Neurobasal® medium supplemented with 2 % B-27® (Invitrogen), 520 μM of L-glutamine, and 1 % penicillin–streptomycin. […]
Aβ peptide levels were quantified by sandwich ELISA using anti-Aβ38, anti-Aβ40, anti-Aβ42, (BioLegend, Dedham, MA, USA) or anti-Aβ37 for the capture and 4G8-horseradish peroxidase (HRP; BioLegend) for detection. […]
For cell-based assays, freshly collected samples of cultured cell supernatant were added to the plates and incubated at 4 °C for about 24 h. Detection was performed using SureBlue 3,3’,5,5’-tetramethylbenzidine (TMB) peroxidase substrate (KPL, Inc., Gaithersburg, MD, USA) and the plates read on a SpectraMax M5e microplate reader (Molecular Devices, Inc., Sunnyvale, CA, USA). […] EC50 values were calculated from values reported as percentage of DMSO using nonlinear regression, based on a sigmoidal dose–response (variable slope) model.

IC50 (Notch processing): > 10000 nM | EC50 (γ-secretase): 53 nM
Structure (SMILES): COc1nc(C2=NOC[C@H](c3cc4ccccc4o3)N2)ccc1-n1cnc(C)c1 [FRM-36143, (R)-5-(benzofuran-2-yl)-3-(6-methoxy-5-(4-methyl-1H-imidazol-1-yl)pyridin-2-yl)-5,6-dihydro-4H-1,2,4-oxadiazine]
